Assay results: patent US8329645B2, “Polymyxin derivatives and uses thereof” (priority 2008, dated 2012)
Where a SMILES comes first, the peptide text is derived from it. Bridges are numbered along the chain shown (N, C = ends). [ ]: non-standard residue; d: D form. The star is where a group is joined. Decanoyl = CCCCCCCCCC(=O)*; Octanoyl = CCCCCCCC(=O)*; Dab = NCC[C@H](N)C(=O)O; Abu = CC[C@H](N)C(=O)O

Columns and labels:
in vivo [1] = settings: male, Sprague-Dawley, rat, iv, 1 mg/kg
Procedure: Four rats (Sprague-Dawley, male) were studied.
The samples were analyzed using liquid chromatography and mass spectrometry with electrospray ionization interface (LC/electrospray ionization MS).

E. coli strains = format: cell-based, Escherichia coli
Procedure: (§1) Polymyxin B sulfate (Sigma-Aldrich, St. Louis, Mo., USA) was used as a control. […] Fourteen (14) strains (the F-strains) were purchased from Mobidiag Ltd., Helsinki, Finland. Besides bacteria, the MIC was also determined for the yeast Candida albicans (ATCC 28366 from ATCC). The inocula were prepared by adjusting the bacterial suspensions to a density equivalent to OD546 nm˜0.3 (˜10^8 CFU/ml˜0.5 McFarland) the yeast suspension to a density equivalent to OD546 nm˜0.75 (˜2×10^7 CFU/ml)._The suspensions were diluted to 10^7 CFU/ml. The plates were inoculated by using a Denley Multipoint Inoculator, 1 μl per spot corresponding to approx. 10^4 CFU/spot. Plates were incubated for 16-20 hours at 35° C. […] Both agents had good activity also against other polymyxin-susceptible strains of Enterobacteriaceae. […] S. aureus and C. albicans were resistant to the NAB peptides.

Pseudomonas aeruginosa = format: cell-based
Procedure: as §1

in vivo [2] = settings: male, Sprague-Dawley, rat, iv, 1 mg/kg; remark: listed apart in the source
Procedure: Each rat (n=5, Sprague-Dawley, male) was anaesthetized using isoflurane, and a polyethylene cannula was inserted into the jugular vein. Each rat was placed into a metabolic cage and allowed to recover from the procedure overnight. […] When collecting samples, the first 100 μl of blood was withdrawn and kept in the syringe. After collecting the actual sample with another syringe, the content of the first syringe was returned to the rat together with 400 μl of heparinized saline. Blood samples were centrifuged to obtain plasma. […] Plasma and urine samples were stored at −80° C.
To a 100-μl sample, 100 μl of acetonitrile was added, the mixture was vortex-mixed for 1 min, and centrifuged at 10,000 g for 10 min. The supernatant was transferred to an SPE C18 cartridge (Sep-Pak, Waters, Mass. USA) for derivatization with 9-fluorenylmethyl chloroformate. […] The chromatography employed the HPLC C18 column (50×4.6 mm), the mobile phase of acetonitrile/tetrahydrofuran/water (60:15:30, v/v), the flow rate of 1.0 ml/min, and the detection at an excitation wavelength of 260 nm and an emission wavelength of 315 nm.

K. pneumoniae ATCC13883 [3] = tested on: K. pneumoniae ATCC13883
Outline: (§2)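 Gradient-strip (E-strip) method, performed per manufacturer's protocol; MIC read where growth inhibition met the strip.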

E. coli ATCC25922 [4] = tested on: E. coli ATCC25922
Outline: as §2

E. coli IH3080 (O18:K1) = assay: Synergistic bactericidal activity with guinea pig serum (complement); format: cell-based, Escherichia coli
Procedure: The ability of NAB7061 to sensitize encapsulated, smooth strain of E. coli to the bactericidal action of normal guinea pig serum (GPS) was studied by the method described by Vaara et al. (1984). E. coli IH3080 (018,K1) was grown in LB broth (LB broth Lennox, Difco, BD, Sparks, Md., U.S.A) at 37° C. in a rotary shaker into early logarithmic growth phase, washed with PBS (phosphate-buffered saline, 8.0 g of NaCl, 0.2 g of KCl, 1.44 g of Na2HPO4×2H2O and 0.2 g of KH2PO4 per liter) and resuspended in PBS, to approx. 10^9 cells/ml). GPS was used as complement source. It was stored at −70° C. before use.
The experimental procedure was as follows. 10% GPS in PBS was inoculated with approx. 500 CFU (colony forming units) of bacteria per ml and pipetted in 0.2 ml aliquots into wells of microtiter plates. The wells already contained increasing amounts of NAB7061 in 0.020 ml of 0.9% NaCl. The plate was incubated at 37° C. for 2 h whereafter each well was emptied onto LB plates. The plates were incubated overnight at 37° C. and the developed colonies were counted.

E. coli ATCC25922 [5] = assay: Growth inhibition around wells on LB agar plates; format: cell-based, Escherichia coli
Procedure: (§3) From an overnight-grown culture of IH3080 on LB agar, a suspension of approx. 10^8 cells/ml was prepared in 0.9% NaCl. Aliquots of this suspension were then pipetted on the agar plates and the plates were gently shaken to spread the suspension evenly on the entire surface of the plate. Thereafter, the unabsorbed part of the suspension was removed by using a Pasteur pipette. After the surface had dried, small wells (diameter, 2 mm) were drilled on the plates (five wells per plate) by using a sterile sharp-edged narrow metal tube, single-use pipette tip, and vacuum suction. An alternative method used a swab to spread the inoculum. Samples (4 μl and 10 μl) of the peptide solution in 0.9% NaCl (at concentrations of 1 μg/ml and 0.1 μg/ml) were then pipetted to the wells and the sample fluids were allowed to absorb. Controls included 0.9% NaCl solution without the compound to be tested. The plates were then incubated for 18 h at 37° C. whereafter the diameters of growth inhibition zones around each well were measured; the diameter of the well itself was not reduced. Finally, the diameters were converted to surface areas of growth inhibition (in square mm).
(§4) The susceptibility of eleven Gram-negative bacterial strains (nine different species) to NAB734 and polymyxin B was compared by using the susceptibility determination method described in Example 2. The strains included those belonging to the species of Serratia marcescens and Proteus mirabilis, both species generally known to be resistant to polymyxin. Furthermore, the susceptibility determination was also performed by using the Gram-positive bacterium, Staphylococcus aureus, also generally known to be polymyxin-resistant. Ten of the strains originated from ATCC (American Type Culture Collection, Manassas, Va., U.S.A.), and one from CCUG (Culture Collection of University of Gothenburg, Sweden). The source of E. coli IH3080 has been described in Example 2. Polymyxin B sulfate was from Sigma-Aldrich (St. Louis, Mo., USA).

E. cloacae ATCC23355 = assay: E-test MIC with or without NAB7061 (4 μg/ml), Mueller-Hinton agar; format: cell-based, Enterobacter cloacae
Outline: as §2

C. freundii ATCC8090 = assay: Growth inhibition around wells on LB agar plates; format: cell-based, Citrobacter freundii
Procedure: as §3, §4

K. oxytoca ATCC13182 = assay: Growth inhibition around wells on LB agar plates; format: cell-based, Klebsiella oxytoca; settings: 4 μg
Procedure: as §3, §4

E. coli IH3080 = assay: E-test MIC with or without NAB7061 (4 μg/ml), Mueller-Hinton agar; format: cell-based, Escherichia coli
Outline: as §2

K. pneumoniae ATCC13883 [6] = assay: Growth inhibition around wells on LB agar plates; format: cell-based, Klebsiella pneumoniae
Procedure: as §3, §4

K. pneumoniae CCUG45421 = assay: Growth inhibition around wells on LB agar plates; format: cell-based, Klebsiella pneumoniae
Procedure: as §3, §4

## CCCCCCCC(=O)N[C@H](C(=O)N[C@H](CO)C(=O)N[C@H]1CCNC(=O)[C@H]([C@@H](C)O)NC(=O)[C@H](CCN)NC(=O)[C@H](CCN)NC(=O)[C@H](CC(C)C)NC(=O)[C@@H](Cc2ccccc2)NC(=O)[C@H](CCN)NC1=O)[C@@H](C)O [NAB 739, OA-Thr-DSer-cy[Dab-Dab-DPhe-Leu-Dab-Dab-Thr-]] (Octanoyl-T[dS][Dab][Dab][dF]L[Dab][Dab]T; lactam 3-C)
In vivo [1]; plasma and urine
  CL renal: 0.53 ± 0.3 mL/min/kg
In vivo [1]; plasma
  Vd: 0.222 ± 0.0205 L/kg
  clearance: 2.63 ± 0.54 mL/min/kg
  half-life: 69 ± 21.9 min
In vivo [1]; urine
  dose excreted: 19.4 ± 7.38%
E. coli strains
  MIC values, range for E. coli strains: 0.5 to 1 µg/mL

## CCCCCCCCCC(=O)N[C@H](C(=O)N[C@H](CO)C(=O)N[C@H]1CCNC(=O)[C@H]([C@@H](C)O)NC(=O)[C@H](CCN)NC(=O)[C@H](CCN)NC(=O)[C@H](CC(C)C)NC(=O)[C@@H](Cc2ccccc2)NC(=O)[C@H](CCN)NC1=O)[C@@H](C)O [NAB 740, DA-Thr-DSer-cy[Dab-Dab-DPhe-Leu-Dab-Dab-Thr-]] (Decanoyl-T[dS][Dab][Dab][dF]L[Dab][Dab]T; lactam 3-C)
Pseudomonas aeruginosa
  MIC, range for Pseudomonas aeruginosa: 4 to 8 µg/mL
E. coli strains
  MIC values, range for E. coli strains: 1 to 2 µg/mL

## CCCCCCCC(=O)N[C@H](C(=O)N[C@@H](CC)C(=O)N[C@H]1CCNC(=O)[C@H]([C@@H](C)O)NC(=O)[C@H](CCN)NC(=O)[C@H](CCN)NC(=O)[C@H](CC(C)C)NC(=O)[C@@H](Cc2ccccc2)NC(=O)[C@H](CCN)NC1=O)[C@@H](C)O [NAB 7061, OA-Thr-Abu-cy[Dab-Dab-DPhe-Leu-Dab-Dab-Thr-]] (Octanoyl-T[Abu][Dab][Dab][dF]L[Dab][Dab]T; lactam 3-C)
In vivo [2]; plasma and urine
  CL renal: 0.28 ± 0.16 mL/min/kg
In vivo [2]; plasma
  Vd: 0.339 ± 0.096 L/kg
  clearance: 3.84 ± 0.75 mL/min/kg
  half-life: 66.2 ± 12.3 min
In vivo [2]; urine
  dose excreted: 7.16 ± 3.7%
K. pneumoniae ATCC13883 [3]; ATCC 13883
  MIC of NAB7061: > 16 µg/mL
E. coli ATCC25922 [4]; ATCC 25922
  MIC of NAB7061: 16 µg/mL
E. coli IH3080 (O18:K1); 10% GPS, heat inactivated, NAB7061 2 μg/ml
  % survival after 2-hour treatment at 37° C.: 500%
E. coli IH3080 (O18:K1); 10% GPS, NAB7061 2 μg/ml
  % survival after 2-hour treatment at 37° C.: 2%
E. coli IH3080 (O18:K1); 10% GPS, NAB7061 4 μg/ml
  % survival after 2-hour treatment at 37° C.: 0%
E. coli IH3080 (O18:K1); none (PBS), NAB7061 2 μg/ml
  % survival after 2-hour treatment at 37° C.: 97%

## Polymyxin B [reference compound]
E. coli ATCC25922 [5]; 4 μg
  growth inhibition around a well: 95 square millimeters
E. coli ATCC25922 [5]; 10 μg
  growth inhibition around a well: 133 square millimeters
E. cloacae ATCC23355
  Sensitization factor to antibiotic (MIC without / with 4 μg/ml of NAB 7061): 4
C. freundii ATCC8090; 4 μg
  growth inhibition around a well: 95 square millimeters
C. freundii ATCC8090; 10 μg
  growth inhibition around a well: 154 square millimeters
K. pneumoniae ATCC13883 [3]; K. pneumoniae ATCC13883
  Sensitization factor to antibiotic (MIC without / with 4 μg/ml of NAB 7061): 1
E. coli ATCC25922 [4]; E. coli ATCC25922
  Sensitization factor to antibiotic (MIC without / with 4 μg/ml of NAB 7061): 5
K. oxytoca ATCC13182
  growth inhibition around a well: 79 square millimeters
E. coli IH3080
  Sensitization factor to antibiotic (MIC without / with 4 μg/ml of NAB 7061): 2
K. pneumoniae ATCC13883 [6]; 4 μg
  growth inhibition around a well: 79 square millimeters
K. pneumoniae ATCC13883 [6]; 10 μg
  growth inhibition around a well: 113 square millimeters
K. pneumoniae CCUG45421; 4 μg
  growth inhibition around a well: 95 square millimeters
K. pneumoniae CCUG45421; 10 μg
  growth inhibition around a well: 133 square millimeters
